Test results published in patent US6699834B1, “Method for treating cancer” (University of Maryland Biotechnology Institute, priority 1997, dated 2004).
Bridge positions count the residues as written; N and C are the ends. Ends that are not written are not given here.

Experiments:
[1] = test system: Kaposi's Sarcoma induced in mice; experiment: Kaposi's Sarcoma tumors induced in mice by KS Y-1 cells; type: in vivo; conditions: for KS in vivo: inhibition of Kaposi's Sarcoma induced in mice; for effect on KS tumors in mice (in words): mouse, in vivo
Method: The effects of the peptides on KS tumor cells were also evaluated in vivo in the KS mouse model. To induce KS tumors in the mice, 1×10^6/ml KS Y-1 cells in 50 μl PBS or saline were injected subcutaneously into immunodeficient mice (beige-XID-BNX mice). […] Methods for detection of apoptosis (from tissue biopsies) were used, as described in Lunardi-Iskandar et al.(1995, Nature 375:64-68). Briefly, the samples were stained in situ for the presence of cells with DNA fragmentation. Tissue slides from formalin-fixed tumors were treated with terminal deoxynucleotide transferase for extension of DNA ends (hydroxyl 3′) and incorporation of digoxigenin-11-dUTP according to the manufacturer's instructions (Oncor, Gaithersburg, Md.). Anti-digoxigenin antibody conjugated with the enzyme peroxidase allowed detection of apoptotic cells, which stain brown, whereas viable cells stain blue.
Certain fractions were tested for activity in reducing Kaposi's Sarcoma lesions in the Kaposi's Sarcoma mouse model as described herein. In this assay, starting one week after injection of the KS Y-1 cells to induce Kaposi's sarcoma formation, the mice were injected subcutaneously with 100 IU hCG. […] After one week of the week of treatment with the hCG fractions, the KS lesions were examined for cell apoptosis and regression as described herein.
Certain fractions of the APL™ hCG and early pregnancy urine were assayed for their ability to elicit apoptosis in Kaposi's Sarcoma lesions induced by injection of KS Y-1 cells in mice (n=3 mice for each treatment). The mice were administered 100 μl subcutaneously of the particular fraction each day for one week.

[2] = test system: HIV-1; conditions: for HIV in vitro Inhibition: inhibition of HIV-1 replication in vitro (HIV-1 strains and HIV-1 primary isolates)
Description: To prepare HIV infected cells for the in vitro assay of hCG preparations and β-hCG peptides and derivatives, primary PBMCs, macrophages, and CD4^+ T cells isolated from peripheral blood and the H9 human T cell line, were acutely or chronically infected with 8 different HIV-1 strains: 4 cell line adapted viruses, namely the macrophage tropic Ba-L strain (Gartner et al., 1986, Science 233:215-219) and the CD4^+ T cell tropic MN, RF, and IIIB strains (10^5 TCID50/ml) (Popovic et al., 1984, Science […]; Gallo et al.; 1984, Science 224:500-503); 2 isolates, Ju1083 and G3, from Nigerian AIDS patients passed once in a CD4^+ T cell line (Sub-T1); and 2 primary (“clinical”) isolates from AIDS patients from Trinidad which were never passed in any cell line and were used at a titer of 7.5×10^4TCID50/ml. In all experiments; HIV1 (10^5 TCID50/ml) was added to the cells(10^6 cells/ml) for a 2 hour incubation after which the virus infected cells were washed with 10 ml phosphate buffered saline (PBS) three times to eliminate extra cellular virus. The test inhibitor, i.e. the hCG or β-hCG peptide preparation was then added and the cells were incubated with the test inhibiter for 9 to 10 days with serial sampling. Cultures were assayed for p24 antigen on days 3 to 10.
Peptides of the α- and β-subunits (0.05 to 50 nmoles/ml), native α chain preparation, and various crude preparations of the native hCG heterodimer (0.01 to 1,000 IU) and the native β-hCG subunit (100 to 1,000 μg) were tested for effects on HIV-1 replication in acutely infected cells-by measuring change in viral antigen levels in response to the above noted preparations (FIGS. 4A-D and Table 3).
The fractions were then tested for anti-HIV, anti-KS and pro-hematopoietic activities in vitro. To assay for inhibition of HIV-1 replication in vitro, the HIV-1 […] viral strain was used to infect PBMCs and PM-1 cells (derived from the HUT-78 T-cell lymphoma cell line) at 10^3 TCID50/ml as described in detail herein.

[3] = test system: hematopoietic progenitor cells; experiment: Hematopoietic progenitor clonogenic assays (CFU-GEMM, BFU-e, CFU-GM); type: cell-based, human; conditions: for Pro-hematopoiesis in vitro Enhancement: relative increase of hematopoietic colony cell number, hCG preparations 200 IU/ml, subunits and peptides 100 μg/ml
Method: The effect of hCG preparations and peptides was assayed on hematopoietic progenitor cells in vitro: Hematopoietic progenitor cells (2×10^5 cell/ml) were isolated from normal bone marrow and cord blood and seeded in methylcellulose. […] The hCG preparations were administered at 200 IU/ml and the β- and α-subunits and peptides were administered at 100 μg/ml. The native commercial preparation of hCG (APL™, Wyeth Ayerst) was pre-tested for anti-HIV and anti-KS activities. Aggregates containing more than 50 cells after 10 days of culture were counted as colonies.

[4] = test system: KS Y-1 and KS-SLK cells; experiment: Kaposi's Sarcoma clonogenic assay in cultured cells; type: cell-based, human; conditions: for inhibition of KS cell growth in clonogenic assays (in words): KS Y-1 and KS SLK; for KS in vitro: inhibition of Kaposi's Sarcoma cell growth in vitro in cultured cells
Method: Briefly, the KS Y-1 cells were obtained from mononuclear cells isolated from pleural effusion of an AIDS patient with KS in the lungs. After the depletion of T lymphocytes, monocytes/macrophages and fibroblasts using monoclonal antibodies against CD2, CD3, CD4, CD8, CD10 and CD14 membrane antigens and baby rabbit complement, the cells were cultured in the absence of exogenous growth factors to select for transformed cells. […] Clonogenic assays were performed by seeding the KS Y-1 or KS-SLK cells in methylcellulose (0.8%, v/v), incubating the cells for 10 days in the presence or absence of the hCC, β-hCG or β-hCG peptide preparations and then counting the number of well-formed colonies of triplicate wells formed after seeding with 5×10^4 cells.
To assay for activity against Kaposi's sarcoma cell growth in vitro, the clonogenic assay described herein was used with the KS Y-1 and KS-SLK cultured Kaposi's Sarcoma cell lines,.

[5] = test system: HIV RNA and protein expression; experiment: HIV RNA and protein expression in HIV-1 transgenic mice; type: in vivo; conditions: for inhibition of HIV RNA and protein expression: inhibition of HIV RNA and protein expression in HIV-1 transgenic mice; for HIV-1 gene / protein expression in transgenic mice (in words): pups dosed via mother's milk
Description: The HIV-1 transgenic mice used for this study contain 7.4 kb of foreign DNA, including 5.1 kb of the HIV-1 proviral genome deleted in the gag and pol genes and 2.3 kb of vector (Dickie et al., 1991, Virology 185:109-119). […] In addition, these mice develop severe hyperkeratotic skin lesions with marked expression of gp 120 and nef genes (Kopp et al., 1993, AIDS Res. Hum. Retroviruses 9:267-275; Vasli et al., 1994, AIDS Res. Hum. Retroviruses 10:1241-1250).
Heterozygous transgenic mothers were treated with the hCG preparation subcutaneously twice weekly. Pups received hCG via the mother's milk.
Gene expression was assayed in total RNA extracted from the skin of Tg26 mice with RNAzol. One microgram of RNA was reverse transcribed into cDNA using random hexamer primers and […] reverse transcriptase (Life Technologies, MD) in a final volume of 30 μl. One tenth of the cDNA reactions were used for PCR amplification of various HIV gene sequences (env, tat, rev, nef and vif). In addition, glyceraldehyde 3-phosphate dehydrogenase (GAPHD) mRNA was amplified for each sample for normalization. Following 25 cycles of amplification, 10% of the PCR product was resolved by electrophoresis through 2% agarose gels and processed for Southern hybridization using FITC-labeled oligonucleotide probes complimentary to internal sequences of the amplicons. Detection was performed by chemiluminescence (Amersham) and relative mRNA levels determined by densitometry after normalization with GAPDH mRNA levels.
Finally, certain fractions were tested for their ability to increase survival, promote weight gain and reduce HIV-1 gene expression in HIV-1 transgenic mice as described herein.

Substance | KS in vivo [1] | effect on KS tumors in mice (in words) [1] | inhibition of HIV-1 infection/replication in vitro (in words) [2] | HIV in vitro Inhibition [2] | promotion of hematopoiesis (in words) [3] | Pro-hematopoiesis in vitro Enhancement [3] | inhibition of KS cell growth in clonogenic assays (in words) [4] | KS in vitro [4] | inhibition of HIV RNA and protein expression [5] | HIV-1 gene / protein expression in transgenic mice (in words) [5]
1. 109-119: β-hCG amino acids 109-119 (SEQ ID NO:7) (TCDDPRFQDSS) | + (“+” represents greater than 15% effect) | some anti-KS activity | inhibit HIV-1 replication in vitro | + (“+” represents greater than 15% effect) | directly promoted | + (“+” represents greater than 15% effect) | strongest anti-tumor effects | + (“+” represents greater than 15% effect) |  | 
2. 109-145: β-hCG amino acids 109-145 (SEQ ID NO:25) (TCDDPRFQDSSSSKAPPPSLPSPSRLPGPSDTPILPQ) | + (“+” represents greater than 15% effect) | some anti-KS activity | inhibited HIV-1 replication | + (“+” represents greater than 15% effect) |  | + (“+” represents greater than 15% effect) | strongest anti-tumor effects | + (“+” represents greater than 15% effect) |  | 
5. 47-57::108-119: β-hCG 47-57 linked at the C-terminus to the N-terminus of 108-119 (SEQ ID NO:32) (GVLPALPQVVCLTCDDPRFQDSS) | +++ (“+++” represents greater than 70% effect) | significant anti-KS activity | inhibit HIV-1 replication in vitro | ++ (“++” represents greater than 40% effect) |  |  | strongest anti-tumor effects | ++ (“++” represents greater than 40% effect) | ++ (“++” represents greater than 40% effect) | 
8. 41-54: β-hCG amino acids 41-54 (SEQ ID NO:3) (MTRVLQGVLPALPQ) | − (“−” represents less than 10% effect) |  |  | − (“−” represents less than 10% effect) |  | − (“−” represents less than 10% effect) |  | − (“−” represents less than 10% effect) | − (“−” represents less than 10% effect) | 
9. 38-57: β-hCG amino acids 38-57 (CPTMTRVLQGVLPALPQVVC; UniProt P0DN86 58-77, looked up, fragment) | − (“−” represents less than 10% effect) |  |  | − (“−” represents less than 10% effect) |  | − (“−” represents less than 10% effect) |  | − (“−” represents less than 10% effect) |  | 
13. 6-16: β-hCG amino acids 6-16 (RPRCRPINATL; UniProt P0DN86 26-36, looked up, fragment) | − (“−” represents less than 10% effect) |  |  | − (“−” represents less than 10% effect) |  | − (“−” represents less than 10% effect) |  | − (“−” represents less than 10% effect) | − (“−” represents less than 10% effect) | 
30. 37-55: β-hCG amino acids 37-55 as printed; probably 47-55 (YCPTMTRVLQGVLPALPQV; UniProt P0DN86 57-75, looked up, fragment) | + (“+” represents greater than 15% effect) |  |  | + (“+” represents greater than 15% effect) |  | + (“+” represents greater than 15% effect) |  | + (“+” represents greater than 15% effect) | + (“+” represents greater than 15% effect) | 
35. 1-15: α-hCG amino acids 1-15 (APDVQDCPECTLQEN; UniProt P01215 25-39, looked up, fragment) | − (“−” represents less than 10% effect) |  |  |  |  | − (“−” represents less than 10% effect) |  | − (“−” represents less than 10% effect) |  | 
47-55: β-hCG amino acids 47-55 (SEQ ID NO:20) (GVLPALPQV) |  | some anti-KS activity | inhibited HIV-1 replication |  | pro-hematopoietic effect |  |  |  |  | elicited inhibition
CVAQPGPQVLLVLC (cysteine pairing not given here) [11. Scrambled 45-57] |  |  | inhibitory effect | ++ (“++” represents greater than 40% effect) |  |  | exhibited activity | ++ (“++” represents greater than 40% effect) |  | some inhibition
Cys-Val-Ala-Gln-Gly-Val-Leu-Pro-Ala-Leu-Pro-Gln-Val-Val-Cys (CVAQGVLPALPQVVC; disulfide 1-15 (inferred)) [12. Scrambled circ. 44-57] |  |  |  | − (“−” represents less than 10% effect) |  | − (“−” represents less than 10% effect) |  | − (“−” represents less than 10% effect) |  | no inhibitory effect
